Test results taken from PMC3471904 (PLoS ONE, 2012).
≈ marks a conversion by molar mass, not a printed value. Where “and” joins values, the source holds several entries; their conditions need not be identical. Identical values can stand only once. Entries after “also recorded” stand apart in the source; their conditions may differ. Like-named read-outs stand apart in the source and are kept apart here.

Experiments:
F. novicida = system: F. novicida; set-up: species or system Galleria mellonella; details: in vivo
[1] = system: mouse macrophage RAW264.7 cells
[2] = system: intracellular F. novicida glpT mutant in A549 cells; format: cell-based
[3] = system: human lung epithelial A549 cells
[4] = system: intracellular F. novicida in RAW264.7 mouse macrophages; format: cell-based
[5] = system: intracellular F. novicida in A549 human alveolar epithelial cells; test: microbe, parasite or virus in culture; format: cell-based
Wild-type F. novicida = test: microbe, parasite or virus in culture; format: cell-based; details: for inhibition at 1000 µM: read-out: Inhibition of growth
F. novicida glpT mutant = format: cell-based
[6] = mouse, in vivo; cited from earlier work
DXR of E. coli = details: cited from earlier work
F. tularensis LVS DXR = F. tularensis LVS DXR (Francisella tularensis subsp. holarctica, UniProt Q2A4P9); test: biochemical
Sequence of F. tularensis LVS DXR (Q2A4P9 whole entry, looked up): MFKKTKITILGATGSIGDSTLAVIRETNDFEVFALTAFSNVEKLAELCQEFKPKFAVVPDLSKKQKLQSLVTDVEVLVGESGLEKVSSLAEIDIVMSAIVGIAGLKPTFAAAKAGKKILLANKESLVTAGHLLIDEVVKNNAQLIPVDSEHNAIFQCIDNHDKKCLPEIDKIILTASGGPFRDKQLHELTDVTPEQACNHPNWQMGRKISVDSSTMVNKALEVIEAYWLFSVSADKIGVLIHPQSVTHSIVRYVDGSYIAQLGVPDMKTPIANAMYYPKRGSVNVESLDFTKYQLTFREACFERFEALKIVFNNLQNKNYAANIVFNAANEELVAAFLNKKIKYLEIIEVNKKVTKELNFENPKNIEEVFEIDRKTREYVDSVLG

[7] = system: M. tuberculosis whole cells; details: cited from earlier work
DXR from M. tuberculosis = details: read-out: half maximal activity against DXR; cited from earlier work
[8] = Francisella tularensis, A549, 20 h, read-out: Inhibition of intracellular growth

## O=C(O)c1cn(C2CC2)c2cc(N3CCNCC3)c(F)cc2c1=O [Ciprofloxacin]
F. novicida; 20 mg/kg
  Mean time to death: 103 h

## CC(=O)N(O)CCCP(=O)(OC(C)OC(=O)c1ccccc1)OC(C)OC(=O)c1ccccc1 (stereo not drawn) [Compound 1]
[1]
  Cytotoxicity by LDH release: did not induce cytotoxicity
[2]
  Effect on intracellular glpT mutant replication: susceptible; also recorded: significant effect
  Intracellular glpT mutant remaining: 22.32±2.23 ×10^3 CFU/well
F. novicida; 30 mg/kg
  Mean time to death: 93 h
[3]
  Cytotoxicity by LDH release: did not induce cytotoxicity
[4]
  Intracellular F. novicida remaining: 1.68±0.28 ×10^5 CFU/well and 0.92±0.18 ×10^5 CFU/well
[5]; [8]
  inhibition at 250 µM: 97 ± 0.8%
  inhibition at 400 µM: 99 ± 0.7%
Wild-type F. novicida
  EC50: 45.2 ± 3.7 µM
  Percent inhibition of growth (OD600 treated vs untreated): 100%
Wild-type F. novicida; Francisella tularensis
  EC50: 45 µM
Wild-type F. novicida; Francisella tularensis, 48 h
  MIC: 202 µM (≈ 99.7 µg/mL)
F. novicida glpT mutant
  MIC: 200 µM (≈ 98.7 µg/mL)
  Percent inhibition of growth (OD600 treated vs untreated): 100%

## CCCCCCOP(=O)(CCCN(O)C(C)=O)OCCCCCC [Compound 2]
Wild-type F. novicida
  Percent inhibition of growth (OD600 treated vs untreated): 27±14%
Wild-type F. novicida; Francisella tularensis
  EC50: 481 ± 44 µM
  MIC: 1100 µM (≈ 402 µg/mL)
Wild-type F. novicida; Francisella tularensis, 48 h
  MIC: 1090 µM (≈ 400 µg/mL)
F. novicida glpT mutant
  MIC: >1000 µM
  Percent inhibition of growth (OD600 treated vs untreated): 11±7%

## CCOP(=O)(CCCN(O)C(C)=O)OCC [Compound 3]
Wild-type F. novicida
  Inhibition of F. novicida (result in words): did not effectively inhibit; also recorded: ineffective

## CC(=O)N(O)CCCP(=O)(O)O [FR900098]
[1]
  Cytotoxicity by LDH release: did not induce cytotoxicity
[2]
  Effect on intracellular glpT mutant replication: not affected; also recorded: no effect
[6]
  Well tolerated dose: up to 300 mg/kg
F. novicida; 30 mg/kg
  Mean time to death: 84 h
[3]
  Cytotoxicity by LDH release: did not induce cytotoxicity
DXR of E. coli; read-out: IC50 against the DXR of E. coli
  IC50: 0.062 µM
[5]
  Inhibition of intracellular growth: 85±10%
  Intracellular F. novicida remaining: 0.56±0.26 ×10^3 CFU/well and 0.59±0.40 ×10^3 CFU/well
[5]; [8]
  inhibition at 250 µM: 86 ± 6%
F. tularensis LVS DXR
  IC50: 0.23 µM
Wild-type F. novicida
  EC50: 23.2 ± 1.2 µM
  Percent inhibition of growth (OD600 treated vs untreated): 97.1±0.8%
Wild-type F. novicida; Francisella tularensis
  EC50: 23 µM
  inhibition at 1000 µM: 100%
Wild-type F. novicida; Francisella tularensis, 48 h
  MIC: 254 µM (≈ 50.1 µg/mL)
F. novicida glpT mutant
  MIC: >1000 µM
  Percent inhibition of growth (OD600 treated vs untreated): 55±5%
[7]
  Effect on whole cells: no effect on whole cells

## O=CN(O)CCCP(=O)(O)O [Fosmidomycin]
[1]
  Cytotoxicity by LDH release: did not induce cytotoxicity
[2]
  Effect on intracellular glpT mutant replication: not affected; also recorded: no effect
[6]
  Well tolerated dose: up to 300 mg/kg
F. novicida; 30 mg/kg
  Mean time to death: 102 h
[3]
  Cytotoxicity by LDH release: did not induce cytotoxicity
DXR of E. coli; read-out: half maximal activity against DXR
  IC50: 0.035 µM
[4]
  Intracellular F. novicida remaining: 0.93±0.20 ×10^5 CFU/well
DXR from M. tuberculosis
  IC50: 0.31 µM
[5]
  Intracellular F. novicida remaining: 0.07±0.03 ×10^3 CFU/well
  Reduction of intracellular bacteria: 2 log
[5]; [8]
  inhibition at 250 µM: 98 ± 0.7%
Wild-type F. novicida
  EC50: 3.6 ± 0.2 µM
  Percent inhibition of growth (OD600 treated vs untreated): 99.6±0.2%
Wild-type F. novicida; Francisella tularensis
  EC50: 3.5 µM
  inhibition at 1000 µM: 100%
Wild-type F. novicida; Francisella tularensis, 48 h
  MIC: 136 µM (≈ 24.9 µg/mL)
F. novicida glpT mutant
  Inhibition of growth: not able to inhibit F. novicida glpT growth at all; also recorded: completely resistant
  MIC: >1000 µM
  Percent inhibition of growth (OD600 treated vs untreated): did not inhibit the growth of the glpT mutant at all
[7]
  Effect on whole cells: no effect on whole cells
